Test results published in patent US20250197864A1, “LNCRNA TRANSCRIPTS IN MELANOMAGENESIS” (The Regents of the University of California, priority 2021, published 2025).

Experiments:
[1] = test system: A-172 Glioblastoma cell line; experiment: Cell viability assay (ATP quantitation); type: cell-based; conditions: 50 nM, 5 days, vs non-targeting control
Outline: (§1)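 Seeded at 0.7-2×10^3 cells/well, cells were treated one day later with oligonucleotides (typically 50 nM, Lipofectamine 3000) and/or MEK inhibitor. Total luminescence was read 3 days (synergy experiments) or 5 days (ASO alone) after transfection.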

AV4 melanoma cell line = experiment: Cell viability assay (ATP quantitation); type: cell-based; conditions: 50 nM, 5 days, vs non-targeting control
Outline: as §1

[2] = test system: H1299 lung cancer cell line; experiment: Cell viability assay (ATP quantitation); type: cell-based; conditions: 50 nM, 5 days, vs non-targeting control
Outline: as §1

[3] = test system: H2228 lung cancer cell line; experiment: Cell viability assay (ATP quantitation); type: cell-based; conditions: 50 nM, 5 days, vs non-targeting control
Outline: as §1

[4] = test system: H82 lung cancer cell line; experiment: Cell viability assay (ATP quantitation); type: cell-based; conditions: 50 nM, 5 days, vs non-targeting control
Outline: as §1

[5] = test system: H929 multiple myeloma cell line; experiment: Cell viability assay (ATP quantitation); type: cell-based; conditions: 50 nM, 5 days, vs non-targeting control
Outline: as §1

[6] = test system: HCT116 colon carcinoma cell line; experiment: Cell viability assay (ATP quantitation); type: cell-based; conditions: 50 nM, 5 days, vs non-targeting control
Outline: as §1

[7] = test system: Hs940.T melanoma cell line; experiment: Cell viability assay (ATP quantitation); type: cell-based; conditions: 50 nM, 5 days, vs non-targeting control
Outline: as §1

[8] = test system: LS174 colon carcinoma cell line; experiment: Cell viability assay (ATP quantitation); type: cell-based; conditions: 50 nM, 5 days, vs non-targeting control
Outline: as §1

[9] = test system: MaMel30 melanoma cell line; experiment: Cell viability assay (ATP quantitation); type: cell-based; conditions: 50 nM, 5 days, vs non-targeting control
Outline: as §1

[10] = test system: SW1271 lung cancer cell line; experiment: Cell viability assay (ATP quantitation); type: cell-based; conditions: 50 nM, 5 days, vs non-targeting control
Outline: as §1

[11] = test system: SW480 colon carcinoma cell line; experiment: Cell viability assay (ATP quantitation); type: cell-based; conditions: 50 nM, 5 days, vs non-targeting control
Outline: as §1

[12] = test system: Sk-Mel-5 melanoma cell line; experiment: Cell viability assay (ATP quantitation); type: cell-based; conditions: 50 nM, 5 days, vs non-targeting control
Outline: as §1

[13] = test system: Sk-N-AS Neuroblastoma cell line; experiment: Cell viability assay (ATP quantitation); type: cell-based; conditions: 50 nM, 5 days, vs non-targeting control
Outline: as §1

[14] = test system: T98G Glioblastoma cell line; experiment: Cell viability assay (ATP quantitation); type: cell-based; conditions: 50 nM, 5 days, vs non-targeting control
Outline: as §1

[15] = test system: U138-MG Glioblastoma cell line; experiment: Cell viability assay (ATP quantitation); type: cell-based; conditions: 50 nM, 5 days, vs non-targeting control
Outline: as §1

[16] = test system: U20S osteosarcoma cell line; experiment: Cell viability assay (ATP quantitation); type: cell-based; conditions: 50 nM, 5 days, vs non-targeting control
Outline: as §1

[17] = test system: U87-MG Glioblastoma cell line; experiment: Cell viability assay (ATP quantitation); type: cell-based; conditions: 50 nM, 5 days, vs non-targeting control
Outline: as §1

[18] = test system: WM3060 melanoma cell line; experiment: Cell viability assay (ATP quantitation); type: cell-based; conditions: 50 nM, 5 days, vs non-targeting control
Outline: as §1

D04 cells = experiment: Flow cytometry apoptosis (Annexin V and propidium iodide); type: cell-based, human; conditions: 50 nM, 24 h, vs Control-ASO
Protocol: To confirm activation of apoptosis and cell death in response to TRASH-ASO treatment (SEQ ID NO: 15) D04 cells were either treated with control-ASO or TRASH-ASO (50 nM) for 24 h. The cells were stained with Alexa 488 Annexin V and propidium iodide (PI) (Invitrogen™ Dead Cell Apoptosis Kits with Annexin V for Flow Cytometry Catalog number: V13241). […] (FIG. 5e)

## GACTGGAGATAATTAA (gapmer, pattern not given here) [SEQ ID NO: 15, GapmeR ASO targeting AC004540.4 (TRASH), exon region of both isoforms; used for in vitro experiments]
[1]
  cell viability decrease: significant cell viability decrease
AV4 melanoma cell line
  cell viability decrease: significant cell viability decrease
[2]
  cell viability decrease: significant cell viability decrease
[3]
  cell viability decrease: significant cell viability decrease
[4]
  cell viability decrease: significant cell viability decrease
[5]
  cell viability decrease: significant cell viability decrease
[6]
  cell viability decrease: significant cell viability decrease
[7]
  cell viability decrease: significant cell viability decrease
[8]
  cell viability decrease: significant cell viability decrease
[9]
  cell viability decrease: significant cell viability decrease
[10]
  cell viability decrease: significant cell viability decrease
[11]
  cell viability decrease: significant cell viability decrease
[12]
  cell viability decrease: significant cell viability decrease
[13]
  cell viability decrease: significant cell viability decrease
[14]
  cell viability decrease: significant cell viability decrease
[15]
  cell viability decrease: significant cell viability decrease
[16]
  cell viability decrease: significant cell viability decrease
[17]
  cell viability decrease: significant cell viability decrease
[18]
  cell viability decrease: significant cell viability decrease
D04 cells
  fractions of apoptotic and dead cells (Annexin V / PI): Increased fractions of apoptotic and dead cells
